The source of these data is PMC8151276, “An Integrated Approach toward NanoBRET Tracers for Analysis of GPCR Ligand Engagement” (Molecules, 2021).

Holding throughout (assay type): binding
Assay [1] has as its target T1, CCR1 (Homo sapiens, UniProt P32246).
T1 construct: purchased Promega (in-house HiBiT-GPCR construct library, NanoBRET)
T1 sequence (P32246 1-355): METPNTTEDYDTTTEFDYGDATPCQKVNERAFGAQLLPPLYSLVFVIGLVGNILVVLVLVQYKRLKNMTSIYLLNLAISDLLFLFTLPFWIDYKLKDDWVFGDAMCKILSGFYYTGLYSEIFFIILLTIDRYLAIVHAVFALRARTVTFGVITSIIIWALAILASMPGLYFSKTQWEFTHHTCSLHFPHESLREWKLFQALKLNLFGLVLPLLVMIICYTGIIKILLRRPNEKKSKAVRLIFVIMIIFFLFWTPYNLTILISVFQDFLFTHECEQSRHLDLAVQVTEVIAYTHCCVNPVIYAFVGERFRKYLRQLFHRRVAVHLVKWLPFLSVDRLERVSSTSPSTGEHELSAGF
Description: NanoBRET screen HiBiT-CCR1 in HEK293. Conditions: CCR1. The gist of the method: (§1)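 Tracer binding was scored as fold response, BRET with tracer alone divided by BRET with 20 μM parental competitor; 1.5-fold was the positive cutoff. Transfected HEK293 cells saw tracer at 1 μM and 0.1 μM for 1.5 h.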
For orientation: Bioluminescence resonance energy transfer reports proximity on the nanometre scale.

For assay [2], the target named is T2, CCR3 (Homo sapiens, UniProt P51677).
T2 construct: purchased Promega (in-house HiBiT-GPCR construct library, NanoBRET)
T2 sequence (P51677 1-355): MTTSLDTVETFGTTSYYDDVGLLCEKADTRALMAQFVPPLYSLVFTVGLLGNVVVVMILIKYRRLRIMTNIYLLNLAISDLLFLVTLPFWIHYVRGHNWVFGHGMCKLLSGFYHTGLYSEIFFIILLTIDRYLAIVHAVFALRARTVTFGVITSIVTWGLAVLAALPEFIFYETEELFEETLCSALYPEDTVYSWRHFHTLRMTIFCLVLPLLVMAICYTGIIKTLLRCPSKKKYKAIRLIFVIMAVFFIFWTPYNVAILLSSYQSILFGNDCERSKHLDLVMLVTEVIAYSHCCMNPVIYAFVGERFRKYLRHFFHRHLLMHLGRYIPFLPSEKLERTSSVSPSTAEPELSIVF
Description: NanoBRET screen HiBiT-CCR3 in HEK293. Conditions: CCR3. The gist of the method:
as §1

In assay [3] the target is T3, PDGFRB (Homo sapiens, UniProt P09619).
T3 construct: purchased Promega (in-house HiBiT-GPCR construct library, NanoBRET)
Description: NanoBRET screen HiBiT-PDGFRB in HEK293. Conditions: PDGFRB. Put shortly: as §1

Assay [4] has as its target T4, CCR5 (Homo sapiens, UniProt P51681).
T4 construct: purchased Promega (in-house HiBiT-GPCR construct library, NanoBRET)
The experiment in a line: NanoBRET screen HiBiT-CCR5 in HEK293. Conditions: CCR5. Put shortly:
as §1

Assay [5] addresses T5, ADORA1 (Homo sapiens, UniProt P30542).
T5 construct: purchased Promega (in-house HiBiT-GPCR construct library, NanoBRET)
T5 sequence (P30542 1-326): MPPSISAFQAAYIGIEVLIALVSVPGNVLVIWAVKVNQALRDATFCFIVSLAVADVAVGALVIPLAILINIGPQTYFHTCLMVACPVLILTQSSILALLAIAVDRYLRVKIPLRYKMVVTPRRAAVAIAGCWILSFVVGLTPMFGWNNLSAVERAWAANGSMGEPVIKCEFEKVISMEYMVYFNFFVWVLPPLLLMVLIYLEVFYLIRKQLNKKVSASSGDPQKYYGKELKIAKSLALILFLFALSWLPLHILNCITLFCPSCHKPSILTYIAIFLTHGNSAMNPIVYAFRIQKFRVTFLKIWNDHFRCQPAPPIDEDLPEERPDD
Description: NanoBRET screen HiBiT-ADORA1 in HEK293. The following applies: ADORA1. The gist of the method: as §1

T3 sequence (P09619 33-1106): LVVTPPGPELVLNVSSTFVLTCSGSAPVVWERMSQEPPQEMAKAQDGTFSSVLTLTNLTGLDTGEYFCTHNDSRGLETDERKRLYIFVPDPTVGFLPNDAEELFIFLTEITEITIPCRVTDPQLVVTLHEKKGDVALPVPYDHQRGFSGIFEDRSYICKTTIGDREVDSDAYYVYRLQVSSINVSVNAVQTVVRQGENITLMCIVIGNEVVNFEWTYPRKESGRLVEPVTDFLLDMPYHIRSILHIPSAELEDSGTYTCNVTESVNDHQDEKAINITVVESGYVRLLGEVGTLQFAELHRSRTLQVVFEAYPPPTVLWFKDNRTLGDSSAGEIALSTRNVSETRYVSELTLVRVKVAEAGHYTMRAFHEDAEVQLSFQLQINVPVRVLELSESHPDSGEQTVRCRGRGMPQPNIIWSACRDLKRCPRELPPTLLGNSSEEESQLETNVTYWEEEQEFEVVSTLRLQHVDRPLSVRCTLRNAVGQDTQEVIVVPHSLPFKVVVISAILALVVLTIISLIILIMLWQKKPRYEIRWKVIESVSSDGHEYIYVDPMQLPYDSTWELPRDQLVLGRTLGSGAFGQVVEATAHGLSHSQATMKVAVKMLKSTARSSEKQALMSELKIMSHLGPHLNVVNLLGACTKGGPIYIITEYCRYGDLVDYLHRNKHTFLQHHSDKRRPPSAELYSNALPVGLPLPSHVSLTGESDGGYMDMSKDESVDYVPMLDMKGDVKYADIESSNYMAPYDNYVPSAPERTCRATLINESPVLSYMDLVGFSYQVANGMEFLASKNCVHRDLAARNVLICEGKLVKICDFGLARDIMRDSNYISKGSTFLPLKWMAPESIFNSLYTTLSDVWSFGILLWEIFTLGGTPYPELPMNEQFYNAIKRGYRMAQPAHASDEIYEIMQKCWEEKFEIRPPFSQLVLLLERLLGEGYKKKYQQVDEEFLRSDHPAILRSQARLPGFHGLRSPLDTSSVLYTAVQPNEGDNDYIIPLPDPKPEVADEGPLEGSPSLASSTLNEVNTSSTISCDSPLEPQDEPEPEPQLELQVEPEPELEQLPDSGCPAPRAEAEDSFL
T4 sequence (P51681 whole entry): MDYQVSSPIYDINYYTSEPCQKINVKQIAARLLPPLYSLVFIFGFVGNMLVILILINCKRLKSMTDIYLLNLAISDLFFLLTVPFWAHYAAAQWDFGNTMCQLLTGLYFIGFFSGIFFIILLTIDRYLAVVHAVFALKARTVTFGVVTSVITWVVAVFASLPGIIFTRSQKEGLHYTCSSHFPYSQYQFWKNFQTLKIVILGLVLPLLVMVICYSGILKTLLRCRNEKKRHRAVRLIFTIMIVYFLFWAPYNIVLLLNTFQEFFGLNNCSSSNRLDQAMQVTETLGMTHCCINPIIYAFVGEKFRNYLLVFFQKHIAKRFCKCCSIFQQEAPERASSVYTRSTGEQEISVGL

For `CCOC(=O)c1cc(C#N)c(N2CCC(C(=O)NS(=O)(=O)Cc3ccccc3/C=C/C(=O)NCCNC(=O)CCc3ccc4n3[B-](F)(F)[N+]3=C(c5ccc[nH]5)C=CC3=C4)CC2)nc1C` [AZD1283-1-NB590], the “NanoBRET Fold Response” value was 1.05 in assay [1] (0.1μM); 1.03 in assay [1] (1μM); 0.96 in assay [2] (0.1μM); 1.02 in assay [2] (1μM); 1.10 in assay [3] (0.1μM); 1.16 in assay [3] (1μM). Besides, the “NanoBRET Fold Response” value is given as 1.02 in assay [4] (0.1μM), 1.04 in assay [4] (1μM), 1.18 in assay [5] (0.1μM) and 1.07 in assay [5] (1μM).
